Assay results: paper PMC10447463, “Data-mining unveils structure–property–activity correlation of viral infectivity enhancing self-assembling peptides” (Nature Communications, 2023)

Tests used:
TZM-bl cells = format: cell-based; details: CellTiter-Glo, mean of n = 3 replicates
In short: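 CellTiter-Glo luminescence, normalized to 100% metabolic activity, gave cytotoxicity readout for TZM-bl cells exposed to peptide serial dilutions for 3 days; 10,000 cells seeded, triplicate measurements.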

[1] = Conversion rate (CR) assay with fluorescamine; format: physicochemical; details: fluorescamine assay
In short: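 Peptide monomer conversion into nanostructures was quantified by separating free monomer via 3 kDa ultrafiltration, then labelling amines in filtrate and whole sample with fluorescamine in DMSO. CR was derived as 100 − 100 × (filtrate/original fluorescence), triplicate means with SD.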

RGDCKFKFQF [TM64/ CN15]
viability 0.26 µM (TZM-bl cells; peptide 0.26 µM): 108.7 | viability 1.3 µM (TZM-bl cells; peptide 1.3 µM): 107.1 | viability 6.5 µM (TZM-bl cells; peptide 6.5 µM): 101 | Conversion Rate / % [1]: 85.47%
